According to patent US11535599B2, “Benzisoxazole derivative” (Sumitomo Pharma Co., Ltd., priority 2020, dated 2022):

What was measured:
[1] = test system: unilateral lesion model of nigrostriatal dopamine neuron induced with 6-OHDA; assay: Extending duration of levodopa-induced rotational behavior in 6-OHDA unilateral lesion model; assay type: in vivo, rat; conditions: Examples 10 or 30 mg/kg oral; rasagiline 0.6 mg/kg; with levodopa 5 mg/kg i.p.
human Cav3.1 = human Cav3.1 (Homo sapiens (Human), UniProt O43497); assay: T-type calcium channel inhibitory activity, whole-cell patch-clamp with HEK293 cell; assay type: cell-based; conditions: for IC50: dose-reactive test, read-out: Cav3.1 IC50 (parenthesized)
Procedure: (§1) The inhibitory activity of the present compounds for T-type calcium channel was measured by whole-cell patch-clamp method with HEK293 cell (vendor of HEK 293 cell: ATCC, Manassas, Va., USA, builder of expressing cell: ChanTest Corporation., Cleveland, Ohio, USA), in which human Cav3.1, human Cav3.2, or human Cav3.3 is expressed. The culture medium used for HEK293 cell was prepared by adding fetal bovine serum (10%), sodium penicillin G (100 U/mL), streptomycin sulfate (100 μg/mL), and G418 (500 μg/mL) to a mixture medium of Dulbecco's modified Eagle's medium/Ham's F-12 medium. The whole-cell current was evaluated with IonWorks Barracuda system and Population Patch Clamp (both are provided by Molecular Device Corporation, Union City, Calif., USA). The extracellular recording solution used during the recording was Hanks' balanced salt solution. The internal recording solution used herein was 50 mmol/L CsCl, 90 mmol/L CsF, 5 mmol/L MgCl2, 1 mmol/L glycol ether diamine tetraacetic acid (EGTA), and 10 mmol/L 4-(2-hydroxyethyl)piperazine-1-ethanesulfonic acid (HEPES (pH 7.2). The holding voltage was held at −90 mV, then changed to −65 mV. 60 seconds later, −20 mV pulse was added thereto for 200 millisecond to activate the channel on plasma membrane and generate calcium current. The calcium current was recorded with an amplifier of IonWorks Barracuda system, and analyzed with a program of the system (Version 2.0.2). The record of the calcium current was obtained twice, before and after the addition of the compound. In the measurement after adding the compound, the cells were exposed to the recording solution containing the compound for more than 5 minutes and then the current was measured. In the analyses, the ratio of current readout after the compound addition per current readout before the compound addition was calculated, the calculated value was subtracted from one, and the obtained value was converted to percentage. […] The value obtained from each compound was canonicalized based on the two ends of values to obtain each inhibitory rate. The positive control compound used herein was TTA-A2 which is known as T-type calcium channel inhibitor. IC50 value was calculated with Hill equation.
(§2) Each inhibitory rate (%) against T-type calcium channel at the evaluation concentration of the present compound (600 μmol/L) is shown in Table 12, in which the parenthesized values are IC50 values (μmol/L)) calculated from the dose-reactive test.

human Cav3.3 = human Cav3.3 (Homo sapiens (Human), UniProt Q9P0X4); assay: as above; assay type: cell-based; conditions: for IC50: dose-reactive test, read-out: Cav3.3 IC50 (parenthesized)
Sequence of human Cav3.3 (Q9P0X4 whole entry): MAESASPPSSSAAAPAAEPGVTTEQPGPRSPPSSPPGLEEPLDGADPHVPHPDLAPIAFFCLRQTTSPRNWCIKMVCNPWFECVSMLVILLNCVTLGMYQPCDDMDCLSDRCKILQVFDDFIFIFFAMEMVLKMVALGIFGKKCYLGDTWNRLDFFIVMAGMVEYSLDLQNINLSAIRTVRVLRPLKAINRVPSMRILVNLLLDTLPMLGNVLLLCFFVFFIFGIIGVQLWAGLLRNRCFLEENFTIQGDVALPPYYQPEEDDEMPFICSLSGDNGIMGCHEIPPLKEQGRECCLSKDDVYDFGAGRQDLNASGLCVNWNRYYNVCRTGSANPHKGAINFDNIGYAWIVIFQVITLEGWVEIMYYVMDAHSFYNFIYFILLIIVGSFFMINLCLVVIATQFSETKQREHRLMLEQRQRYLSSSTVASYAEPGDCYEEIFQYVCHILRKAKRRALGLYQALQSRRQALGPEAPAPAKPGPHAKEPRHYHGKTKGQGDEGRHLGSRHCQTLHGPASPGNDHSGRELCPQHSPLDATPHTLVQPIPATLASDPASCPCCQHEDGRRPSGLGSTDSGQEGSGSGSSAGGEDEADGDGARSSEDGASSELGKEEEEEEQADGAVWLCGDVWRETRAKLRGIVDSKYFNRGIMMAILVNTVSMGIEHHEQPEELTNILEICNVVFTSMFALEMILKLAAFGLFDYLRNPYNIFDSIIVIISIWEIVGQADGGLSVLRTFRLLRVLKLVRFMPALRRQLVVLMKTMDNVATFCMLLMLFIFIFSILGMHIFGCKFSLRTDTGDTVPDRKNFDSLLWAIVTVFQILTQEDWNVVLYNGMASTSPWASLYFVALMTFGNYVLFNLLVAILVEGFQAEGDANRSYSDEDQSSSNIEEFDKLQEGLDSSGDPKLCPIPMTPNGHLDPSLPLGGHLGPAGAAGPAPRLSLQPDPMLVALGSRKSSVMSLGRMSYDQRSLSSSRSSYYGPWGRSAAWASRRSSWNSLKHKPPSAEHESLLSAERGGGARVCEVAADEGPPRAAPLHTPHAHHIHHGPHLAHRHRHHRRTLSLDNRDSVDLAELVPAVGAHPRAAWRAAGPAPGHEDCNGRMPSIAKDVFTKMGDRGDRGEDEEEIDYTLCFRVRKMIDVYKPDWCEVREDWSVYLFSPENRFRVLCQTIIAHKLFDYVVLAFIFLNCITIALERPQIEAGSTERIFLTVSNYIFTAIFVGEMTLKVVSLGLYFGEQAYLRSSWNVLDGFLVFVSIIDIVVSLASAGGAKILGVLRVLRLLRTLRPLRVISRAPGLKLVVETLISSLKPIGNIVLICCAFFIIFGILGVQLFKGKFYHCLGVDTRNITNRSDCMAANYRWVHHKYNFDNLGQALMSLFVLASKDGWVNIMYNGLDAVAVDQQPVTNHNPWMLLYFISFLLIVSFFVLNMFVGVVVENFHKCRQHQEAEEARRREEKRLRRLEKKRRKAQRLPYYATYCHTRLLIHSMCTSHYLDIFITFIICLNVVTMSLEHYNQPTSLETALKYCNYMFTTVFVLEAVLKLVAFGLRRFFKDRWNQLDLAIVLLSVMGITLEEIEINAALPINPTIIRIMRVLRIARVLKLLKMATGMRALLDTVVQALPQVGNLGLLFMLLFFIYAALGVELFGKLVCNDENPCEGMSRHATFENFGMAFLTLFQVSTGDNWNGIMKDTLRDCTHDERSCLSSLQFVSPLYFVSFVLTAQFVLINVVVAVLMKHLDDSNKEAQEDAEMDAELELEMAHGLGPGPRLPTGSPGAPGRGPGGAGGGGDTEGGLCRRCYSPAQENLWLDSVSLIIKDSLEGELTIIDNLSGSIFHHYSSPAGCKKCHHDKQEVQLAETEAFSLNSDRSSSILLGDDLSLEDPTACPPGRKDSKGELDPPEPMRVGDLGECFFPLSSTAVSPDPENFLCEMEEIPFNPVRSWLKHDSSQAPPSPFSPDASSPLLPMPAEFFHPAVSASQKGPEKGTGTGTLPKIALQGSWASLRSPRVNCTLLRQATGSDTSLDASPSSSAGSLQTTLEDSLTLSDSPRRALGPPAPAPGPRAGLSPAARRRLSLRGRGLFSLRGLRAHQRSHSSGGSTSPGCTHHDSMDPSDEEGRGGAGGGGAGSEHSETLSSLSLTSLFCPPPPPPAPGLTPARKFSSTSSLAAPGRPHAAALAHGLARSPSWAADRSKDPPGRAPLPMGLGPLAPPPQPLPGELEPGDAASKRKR
Procedure: as §1, §2

human Cav3.2 = human Cav3.2 (Homo sapiens (Human), UniProt O95180); assay: as above; assay type: cell-based; conditions: for IC50: dose-reactive test, read-out: Cav3.2 IC50 (parenthesized)
Sequence of human Cav3.2 (O95180 whole entry): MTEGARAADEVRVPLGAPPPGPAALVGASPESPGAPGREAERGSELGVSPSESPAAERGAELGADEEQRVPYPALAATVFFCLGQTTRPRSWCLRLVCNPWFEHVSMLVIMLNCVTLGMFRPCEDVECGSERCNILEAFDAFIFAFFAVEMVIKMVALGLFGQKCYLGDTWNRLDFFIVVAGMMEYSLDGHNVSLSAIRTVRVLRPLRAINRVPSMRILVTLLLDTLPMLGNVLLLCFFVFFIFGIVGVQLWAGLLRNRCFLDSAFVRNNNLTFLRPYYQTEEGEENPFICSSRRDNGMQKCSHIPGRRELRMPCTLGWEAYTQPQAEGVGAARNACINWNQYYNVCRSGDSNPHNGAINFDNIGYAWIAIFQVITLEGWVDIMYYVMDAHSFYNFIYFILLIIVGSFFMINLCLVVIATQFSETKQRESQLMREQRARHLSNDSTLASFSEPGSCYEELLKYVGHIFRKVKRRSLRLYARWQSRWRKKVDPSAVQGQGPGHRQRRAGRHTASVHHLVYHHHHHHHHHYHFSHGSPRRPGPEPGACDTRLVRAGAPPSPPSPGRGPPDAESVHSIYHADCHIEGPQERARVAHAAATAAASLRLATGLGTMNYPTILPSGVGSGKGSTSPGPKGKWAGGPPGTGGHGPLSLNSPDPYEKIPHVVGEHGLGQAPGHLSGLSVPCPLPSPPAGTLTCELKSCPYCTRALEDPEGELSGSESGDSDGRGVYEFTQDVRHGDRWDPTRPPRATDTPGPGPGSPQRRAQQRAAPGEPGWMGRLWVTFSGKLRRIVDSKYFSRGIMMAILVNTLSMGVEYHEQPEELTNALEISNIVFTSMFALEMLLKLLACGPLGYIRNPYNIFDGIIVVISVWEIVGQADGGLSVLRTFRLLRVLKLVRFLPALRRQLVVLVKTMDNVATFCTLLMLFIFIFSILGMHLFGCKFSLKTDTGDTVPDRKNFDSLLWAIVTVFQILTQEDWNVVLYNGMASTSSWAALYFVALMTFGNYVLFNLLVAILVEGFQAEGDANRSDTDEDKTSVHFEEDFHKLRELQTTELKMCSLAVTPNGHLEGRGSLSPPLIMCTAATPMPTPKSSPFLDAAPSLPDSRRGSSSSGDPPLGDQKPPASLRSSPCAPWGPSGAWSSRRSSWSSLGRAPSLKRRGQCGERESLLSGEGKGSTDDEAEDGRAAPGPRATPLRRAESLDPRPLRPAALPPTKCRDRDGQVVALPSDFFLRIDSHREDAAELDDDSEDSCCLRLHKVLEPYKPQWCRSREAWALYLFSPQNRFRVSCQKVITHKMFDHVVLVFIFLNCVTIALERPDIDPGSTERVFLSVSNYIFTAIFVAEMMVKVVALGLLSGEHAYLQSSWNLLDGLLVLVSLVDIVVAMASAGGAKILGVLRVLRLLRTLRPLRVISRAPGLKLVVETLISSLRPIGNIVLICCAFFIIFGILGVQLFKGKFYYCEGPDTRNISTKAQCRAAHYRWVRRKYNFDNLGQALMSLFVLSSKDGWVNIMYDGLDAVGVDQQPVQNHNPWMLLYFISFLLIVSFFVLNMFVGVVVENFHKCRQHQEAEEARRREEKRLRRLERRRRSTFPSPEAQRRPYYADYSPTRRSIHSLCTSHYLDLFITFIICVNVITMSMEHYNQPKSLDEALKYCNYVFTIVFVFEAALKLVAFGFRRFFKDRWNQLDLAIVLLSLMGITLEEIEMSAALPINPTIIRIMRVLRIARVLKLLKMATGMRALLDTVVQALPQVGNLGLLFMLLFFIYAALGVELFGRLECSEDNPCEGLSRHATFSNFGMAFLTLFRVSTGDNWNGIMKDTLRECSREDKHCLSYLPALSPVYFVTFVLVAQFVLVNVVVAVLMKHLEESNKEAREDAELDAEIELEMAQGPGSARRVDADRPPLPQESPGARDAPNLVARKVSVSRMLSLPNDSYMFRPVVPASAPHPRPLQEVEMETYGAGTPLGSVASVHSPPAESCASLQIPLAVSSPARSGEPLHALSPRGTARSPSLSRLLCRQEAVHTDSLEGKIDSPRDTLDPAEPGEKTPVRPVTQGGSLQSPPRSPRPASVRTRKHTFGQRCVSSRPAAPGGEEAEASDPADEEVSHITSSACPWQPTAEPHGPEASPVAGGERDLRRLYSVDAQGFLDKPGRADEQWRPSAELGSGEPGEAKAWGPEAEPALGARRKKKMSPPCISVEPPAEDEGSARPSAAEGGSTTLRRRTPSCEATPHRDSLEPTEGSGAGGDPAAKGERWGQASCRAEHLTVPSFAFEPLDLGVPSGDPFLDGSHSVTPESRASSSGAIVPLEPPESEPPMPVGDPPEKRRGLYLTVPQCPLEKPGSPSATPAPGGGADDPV
Procedure: as §1, §2

[2] = test system: harmaline-induced essential tremor model; assay: Anti-tremor effect in harmaline-induced essential tremor model; assay type: in vivo, mouse; conditions: Examples 1, 13: 25 or 50 mg/kg, Example 14: 3.125-25 mg/kg oral; β-propranolol 10 mg/kg i.p.
Procedure: As an animal model of essential tremor, an animal administrated with harmaline is broadly used in its evaluation test. […] The effect of the present compounds for harmaline-acute-administration-induced tremor was studied. To male Crl: CD1 mice (6-7 weeks old) (CHARLES RIVER LABORATORIES JAPAN, INC.), harmaline (30 mg/kg) was intraperitoneally administered to induce tremor. The present compound (Example 1 (25 mg/kg or 50 mg/kg), Example 13 (25 mg/kg or 50 mg/kg), or Example 14 (3.125 mg/kg, 6.25 mg/kg, 12.5 mg/kg, or 25 mg/kg)) was orally administered to the mouse one hour before the administration of harmaline. And, saline or β-propranolol (10 mg/kg) which is a positive control compound was intraperitoneally administered to the mouse 20 minutes before the administration of harmaline. 35 minutes before the administration of harmaline, the mouse was put into a measurement cage (an acrylic cylinder set in a horizontal direction, φ 65 mm, length 145 mm), one cage to one mouse, said measurement cage was in a soundproof box of a startle response instrument (O'hara & Co., Ltd., Tokyo). The trembling that the mouse gave were recorded over time as tremor data. The animal was put into cage, and the data were recorded for 20 minutes just before (PRE) and just after (POST) the administration of harmaline. The time-series signal data were analyzed about frequency with an analysis software, VitalTracer and BIMUTAS II-A (both, Kissei Comtech Co., Ltd., Matsumoto-shi). At 12-15 Hz or 12-18 Hz as a frequency which increases with tremor, the spectrum amounts were extracted, and the tremor intensity T of each subject was calculated according to the following formula. T=POST/PRE

[3] = test system: rat sleep electroencephalogram; assay: Effect for sleeping stage/waking stage, rat sleep electroencephalogram; assay type: in vivo; conditions: 30 or 100 mg/kg oral, 6 hours
Procedure: As non-motor symptoms in Parkinson's disease, sleep disorder such as insomnia (e.g. difficulty falling asleep, nocturnal awakening, etc.) is known. It is important to improve sleeping quality. The effect of the present compounds for sleep was evaluated by measuring rat sleep electroencephalogram.
In the present test, male Crlj: WI rats (CHARLES RIVER LABORATORIES JAPAN, INC.) were used. Under anesthesia, a radiofrequency transmitter (HD-S02, Data Science International, Inc.) was set in the peritoneal cavity of the rat, and two electrodes for measuring electroencephalogram were stereotaxically placed in the skull (frontoparietal electrode: 2 mm ahead of bregma and 2 mm left from midline, parietal electrode: 5 mm behind bregma and 2 mm right from midline). An electrode for recording electromyogram was placed in the dorsal neck muscle. After more than one week as postoperative recuperation period, the rats were used in the sleep electroencephalogram measurement.
The compound of Example 13 (30 mg/kg or 100 mg/kg) was orally administered to the rat just before light phase, and the electroencephalogram and electromyogram of the rat were recorded at 500 Hz for 6 hours in a breeding cage in a soundproof box. The recorded signals were classified to 3 stages, wake/REM sleep/non-REM sleep every 10 seconds with a sleep analysis program Sleepsign (version 3, Kissei Comtec Co., Ltd.), and aggregated. Specifically, when the myoelectric response was beyond the threshold defined for each individual animal, it was classified as wake, and otherwise it was classified as sleep. In the sleep, when the power value at delta wave (0.5-4 Hz) of EEG-frequency component was beyond the threshold defined for each individual beforehand, it was classified as non-REM sleep. When the power value at theta wave (4-8 Hz) was beyond 40% of the total power value at 0.5-80 Hz, it was classified as REM sleep.

| SMILES | rotational number in the late phase (100-120 minutes) [1] | Cav3.1 % inhibitory rate (human Cav3.1; 600 μmol/L) [%] | IC50 (human Cav3.1) [µM] | Cav3.3 % inhibitory rate (human Cav3.3; 600 μmol/L) [%] | IC50 (human Cav3.3) [µM] | Cav3.2 % inhibitory rate (human Cav3.2; 600 μmol/L) [%] | IC50 (human Cav3.2) [µM] | harmaline-induced tremor intensity [2] | REM sleep latency [3] | REM sleep time [3] | non-REM sleep latency [3] | non-REM sleep time [3] | waking time [3] | inhibition at 600 µM (human Cav3.1; HEK293, 600 μmol/L, read-out: Cav3.1 % inhibitory rate) [%] | inhibition at 600 µM (human Cav3.3; HEK293, 600 μmol/L, read-out: Cav3.3 % inhibitory rate) [%] | inhibition at 600 µM (human Cav3.2; HEK293, 600 μmol/L, read-out: Cav3.2 % inhibitory rate) [%] |
| --- | --- | --- | --- | --- | --- | --- | --- | --- | --- | --- | --- | --- | --- | --- | --- | --- |
| CC(c1noc2ccccc12)S(N)(=O)=O (stereo not drawn) [Example 1, 1-(Benzo[d]isoxazol-3-yl)ethane-1-sulfonamide] | significantly increased the rotational number in the late phase | 46.0 | 449 | 30.7 | 922 | 33.0 | 848 | inhibited harmaline-induced tremor | – | – | – | – | – | – | – | – |
| C[C@H](c1noc2ccccc12)S(N)(=O)=O [Example 13, (1R)-1-(1,2-benzoxazol-3-yl)ethane-1-sulfonamide] | significantly increased the rotational number in the late phase | – | 465 | – | 746 | – | 713 | inhibited harmaline-induced tremor | tended to elongate | significantly shortened | significantly shortened | increased | significantly shortened | 50.9 | 39.9 | 42.6 |
